The results in this text go back to patent publication EP3345917A1, “ANTIPROTOZOAL COMPOUNDS” (Bacoba AG, priority 2017, dated 2018).

Structures are written as SMILES. Non-standard residues stand in square brackets, D forms with d. Residues, ends and D or L forms follow the SMILES beside them. *: point of attachment. Adamantane1carbonyl = O=C(C12CC3CC(CC(C3)C1)C2)*; NH((S)CH(Me)CH2NMe2) = C[C@@H](CN(C)C)N*; Gly(octyl) = CCCCCCCC[C@H](N)C(=O)O; Thiophene2carbonyl = O=C(c1cccs1)*; X16 = COc1ccc2cc(C(=O)*)c(=O)oc2c1; X19 = O=C(c1ccnc2cc(Cl)ccc12)*; Pyrrole2CO = O=C(c1ccc[nH]1)*; X20 = O=C(c1ccc2[nH]ccc2c1)*; X21 = O=C(c1ccc2ocnc2c1)*; Aib = CC(C)(N)C(=O)O; βAla = NCCC(=O)O

What all share (assay type): cell-based
The test system of assay [1] is Trypanosoma brucei rhodesiense (STIB 900 strain). The assay can be described thus: Alamar Blue assay against Trypanosoma brucei rhodesiense grown in axenic medium. The settings on record: In vitro inhibition, read-out: T.b.rhod. The method in brief: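 T. b. rhodesiense STIB 900 cultured in axenic medium and exposed to samples in an Alamar Blue viability assay, run in triplicate. IC50 calculated from the readout; melarsoprol served as reference drug.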

The test system of assay [2] is Trypanosoma cruzi trypomastigote forms (Tulahuen strain). Put plainly: Intracellular Trypanosoma cruzi assay in L6-cells, beta-galactosidase/CPRG readout. The settings on record: In vitro inhibition, read-out: T.cruzi. The method in brief: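 L6 rat myoblasts infected with Tulahuen C2C4 LacZ T. cruzi; after incubation, CPRG/Nonidet substrate added and colour developed 2–6 h. Absorbance at 540 nm; IC50 calculated; triplicate tests.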

Assay [3] deals with Axenically grown Leishmania donovani amastigotes (strain MHOM/ET/67/L82). The assay can be described thus: Axenic Leishmania donovani amastigote resazurin assay. To be noted: In vitro inhibition, read-out: L.don. ax. The method, boiled down: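 Strain MHOM/ET/67/L82 amastigotes grown axenically and tested in triplicate by resazurin assay. Plates developed 2-4 hours, fluorescence read at 536 nm excitation/588 nm emission and expressed as percentage of negative control.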
On the technique in general: The colour change of resazurin is a common sign of viable cells or microbes.

Assay [4] has as its system intracellular Leishmania donovani (L.don. InMac). Put plainly: Intracellular Leishmania donovani assay (L.don. InMac). To be noted: In vitro inhibition. The text has this:
(§1) Tests were done in triplicate.

For the next assay, the system named is Plasmodium falciparum. The assay can be described thus: 3H-hypoxanthine incorporation assay against Plasmodium falciparum. The settings on record: In vitro inhibition, read-out: P.falc NF5. Here is the method:
as §1
IC50 values were calculated by linear interpolation.

For the molecule `CCCCCCCC[C@H](NC(=O)[C@@H]1CCCN1C(=O)c1ccc2[nH]ccc2c1)C(=O)N[C@@H](CC(C)C)C(=O)NC(C)(C)C(=O)N[C@@H](CC(C)C)C(=O)N[C@@H](CC(C)C)C(=O)NC(C)(C)C(=O)NC(C)(C)C(=O)NCCC(=O)N[C@@H](C)CN(C)C` [Compound 5911, (2S)-N-[(1S)-1-[(1-{[(1S)-1-{[(1S)-1-{[1-({1-[(2-{[(2S)-1-(dimethylamino)propan-2-yl]carbamoyl}ethyl)carbamoyl]-1-methylethyl}carbamoyl)-1-methylethyl]carbamoyl}-3-methylbutyl]carbamoyl}-3-methylbutyl]carbamoyl}-1-methylethyl)carbamoyl]-3-methylbutyl]-2-{[(2S)-1-(1H-indole-5-carbonyl)pyrrolidin-2-yl]formamido}decanamide] (X20-P[Gly(octyl)]L[Aib]LL[Aib][Aib][βAla]-{NH((S)CH(Me)CH2NMe2)}), the IC50 in assay [1] worked out at 25600 nM; in assay [2], 34 nM; in assay [3], 14.4 nM; in assay [4], 34.8 nM; in the assay on Plasmodium falciparum, 42.5 µM.
For `CCCCCCCC[C@H](NC(=O)[C@@H]1CCCN1C(=O)c1ccc2ocnc2c1)C(=O)N[C@@H](CC(C)C)C(=O)NC(C)(C)C(=O)N[C@@H](CC(C)C)C(=O)N[C@@H](CC(C)C)C(=O)NC(C)(C)C(=O)NC(C)(C)C(=O)NCCC(=O)N[C@@H](C)CN(C)C` [Compound 5937] (X21-P[Gly(octyl)]L[Aib]LL[Aib][Aib][βAla]-{NH((S)CH(Me)CH2NMe2)}), in that order: 43500 nM, 45.4 nM, 21.2 nM, 58.5 nM and 27.6 µM.
In the case of `CCCCCCCC[C@H](NC(=O)[C@@H]1CCCN1C(=O)C12CC3CC(CC(C3)C1)C2)C(=O)N[C@@H](CC(C)C)C(=O)NC(C)(C)C(=O)N[C@@H](CC(C)C)C(=O)N[C@@H](CC(C)C)C(=O)NC(C)(C)C(=O)NC(C)(C)C(=O)NCCC(=O)N[C@@H](C)CN(C)C` [Compound 5770, (2S)-2-{[(2S)-1-(adamantane-1-carbonyl)pyrrolidin-2-yl]formamido}-N-[(1S)-1-[(1-{[(1S)-1-{[(1S)-1-{[1-({1-[(2-{[(2S)-1-(dimethylamino)propan-2-yl]carbamoyl}ethyl)carbamoyl]-1-methylethyl}carbamoyl)-1-methylethyl]carbamoyl}-3-methylbutyl]carbamoyl}-3-methylbutyl]carbamoyl}-1-methylethyl)carbamoyl]-3-methylbutyl]decanamide] (Adamantane1carbonyl-P[Gly(octyl)]L[Aib]LL[Aib][Aib][βAla]-{NH((S)CH(Me)CH2NMe2)}), the IC50 was determined as 0.6 nM in assay [1]; 101 nM in assay [2]; 1 nM in assay [3]; 338 nM in assay [4]; 0.0033 µM in the assay on Plasmodium falciparum.
As for `CCCCCCCC[C@H](NC(=O)[C@@H]1CCCN1C(=O)c1cccs1)C(=O)N[C@@H](CC(C)C)C(=O)NC(C)(C)C(=O)N[C@@H](CC(C)C)C(=O)N[C@@H](CC(C)C)C(=O)NC(C)(C)C(=O)NC(C)(C)C(=O)NCCC(=O)N[C@@H](C)CN(C)C` [Compound 5904, (2S)-N-[(1S)-1-[(1-{[(1S)-1-{[(1S)-1-{[1-({1-[(2-{[(2S)-1-(dimethylamino)propan-2-yl]carbamoyl}ethyl)carbamoyl]-1-methylethyl}carbamoyl)-1-methylethyl]carbamoyl}-3-methylbutyl]carbamoyl}-3-methylbutyl]carbamoyl}-1-methylethyl)carbamoyl]-3-methylbutyl]-2-{[(2S)-1-(thiophene-2-carbonyl)pyrrolidin-2-yl]formamido}decanamide] (Thiophene2carbonyl-P[Gly(octyl)]L[Aib]LL[Aib][Aib][βAla]-{NH((S)CH(Me)CH2NMe2)}), the IC50 in assay [1] amounted to 0.2 nM; in assay [2] it was 36300 nM; in assay [3], 42500 nM; in assay [4], 42500 nM; in the assay on Plasmodium falciparum, 32.1 µM.
As for `CCCCCCCC[C@H](NC(=O)[C@@H]1CCCN1C(=O)c1cc2ccc(OC)cc2oc1=O)C(=O)N[C@@H](CC(C)C)C(=O)NC(C)(C)C(=O)N[C@@H](CC(C)C)C(=O)N[C@@H](CC(C)C)C(=O)NC(C)(C)C(=O)NC(C)(C)C(=O)NCCC(=O)N[C@@H](C)CN(C)C` [Compound 5769, (2S)-N-[(1S)-1-[(1-{[(1S)-1-{[(1S)-1-{[1-({1-[(2-{[(2S)-1-(dimethylamino)propan-2-yl]carbamoyl}ethyl)carbamoyl]-1-methylethyl}carbamoyl)-1-methylethyl]carbamoyl}-3-methylbutyl]carbamoyl}-3-methylbutyl]carbamoyl}-1-methylethyl)carbamoyl]-3-methylbutyl]-2-{[(2S)-1-(7-methoxy-2-oxo-2H-chromene-3-carbonyl)pyrrolidin-2-yl]formamido}decanamide] (X16-P[Gly(octyl)]L[Aib]LL[Aib][Aib][βAla]-{NH((S)CH(Me)CH2NMe2)}), the IC50 in assay [1] was found to be 2.8 nM; in assay [2] it was 167 nM; in assay [3], 8.1 nM; in assay [4], 216 nM; in the assay with Plasmodium falciparum, 0.0053 µM.
For the molecule `CCCCCCCC[C@H](NC(=O)[C@@H]1CCCN1C(=O)c1ccnc2cc(Cl)ccc12)C(=O)N[C@@H](CC(C)C)C(=O)NC(C)(C)C(=O)N[C@@H](CC(C)C)C(=O)N[C@@H](CC(C)C)C(=O)NC(C)(C)C(=O)NC(C)(C)C(=O)NCCC(=O)N[C@@H](C)CN(C)C` [Compound 5768, (2S)-2-{[(2S)-1-(7-chloroquinoline-4-carbonyl)pyrrolidin-2-yl]formamido}-N-[(1S)-1-[(1-{[(1S)-1-{[(1S)-1-{[1-({1-[(2-{[(2S)-1-(dimethylamino)propan-2-yl]carbamoyl}ethyl)carbamoyl]-1-methylethyl}carbamoyl)-1-methylethyl]carbamoyl}-3-methylbutyl]carbamoyl}-3-methylbutyl]carbamoyl}-1-methylethyl)carbamoyl]-3-methylbutyl]decanamide] (X19-P[Gly(octyl)]L[Aib]LL[Aib][Aib][βAla]-{NH((S)CH(Me)CH2NMe2)}), the IC50 in assay [1] amounted to 8.7 nM; in assay [2], 373 nM; in assay [3], 33.5 nM; in assay [4], 257 nM; in the assay with Plasmodium falciparum it was 0.0245 µM.
Turning to `CCCCCCCC[C@H](NC(=O)[C@@H]1CCCN1C(=O)c1ccc[nH]1)C(=O)N[C@@H](CC(C)C)C(=O)NC(C)(C)C(=O)N[C@@H](CC(C)C)C(=O)N[C@@H](CC(C)C)C(=O)NC(C)(C)C(=O)NC(C)(C)C(=O)NCCC(=O)N[C@@H](C)CN(C)C` [Compound 5939, (2S)-N-[(1S)-1-[(1-{[(1S)-1-{[(1S)-1-{[1-({1-[(2-{[(2S)-1-(dimethylamino)propan-2-yl]carbamoyl}ethyl)carbamoyl]-1-methylethyl}carbamoyl)-1-methylethyl]carbamoyl}-3-methylbutyl]carbamoyl}-3-methylbutyl]carbamoyl}-1-methylethyl)carbamoyl]-3-methylbutyl]-2-{[(2S)-1-(1H-pyrrole-2-carbonyl)pyrrolidm-2-yl]formamido}decanamide] (Pyrrole2CO-P[Gly(octyl)]L[Aib]LL[Aib][Aib][βAla]-{NH((S)CH(Me)CH2NMe2)}), the IC50 in assay [1] was 0.1 nM; in assay [2], 42500 nM; in assay [3], 36000 nM; in assay [4], 209 nM; with Plasmodium falciparum, 36.2 µM.
